Experimental data: ChEMBL document CHEMBL3407363, “Vitamin D3 analogues that contain modified A- and seco-B-rings as hedgehog pathway inhibitors” (Eur J Med Chem, 2015)
pIC50: −log10 of the molar value.

Columns and labels:
[1] = Inhibition of hedgehog signaling in mouse C3H10T1/2 cells assessed as reduction in Gli1 mRNA level at 5 uM after 24 hrs by quantitative PCR analysis relative to control; format: cell-based; conditions: C3H 10T1/2, values are per cent of control
[2] = Inhibition of hedgehog signaling in mouse C3H10T1/2 cells assessed as reduction in Gli1 mRNA level after 24 hrs by quantitative PCR analysis; format: cell-based; conditions: for inhibition: C3H 10T1/2; for pIC50: C3H 10T1/2, 24 h
Vitamin D3 receptor [3] = molecular target: T1, Vitamin D3 receptor (Mus musculus, UniProt P48281); experiment: Activation of VDR in mouse ASZ cells assessed as up-regulation of Cyp24A1 mRNA at 5 uM after 24 hrs by quantitative PCR analysis relative to control; format: ADME, cell-based
T1 sequence (P48281 whole entry): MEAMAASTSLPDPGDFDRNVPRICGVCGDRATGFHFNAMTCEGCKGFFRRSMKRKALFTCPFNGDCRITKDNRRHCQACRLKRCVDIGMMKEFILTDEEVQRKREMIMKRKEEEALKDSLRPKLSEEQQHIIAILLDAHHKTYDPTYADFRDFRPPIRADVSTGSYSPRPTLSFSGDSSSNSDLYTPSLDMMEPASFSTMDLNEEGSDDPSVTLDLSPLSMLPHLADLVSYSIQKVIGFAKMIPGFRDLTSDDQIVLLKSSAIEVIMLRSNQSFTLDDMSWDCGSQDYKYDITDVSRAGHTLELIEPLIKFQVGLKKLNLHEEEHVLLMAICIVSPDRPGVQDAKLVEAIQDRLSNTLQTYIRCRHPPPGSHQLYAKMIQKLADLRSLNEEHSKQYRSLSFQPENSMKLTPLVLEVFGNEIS

[4] = molecular target: T2, Vitamin D3 receptor (Homo sapiens) (UniProt P11473); experiment: Binding affinity to full length human VDR by fluorescent displacement assay
T2 sequence (whole entry): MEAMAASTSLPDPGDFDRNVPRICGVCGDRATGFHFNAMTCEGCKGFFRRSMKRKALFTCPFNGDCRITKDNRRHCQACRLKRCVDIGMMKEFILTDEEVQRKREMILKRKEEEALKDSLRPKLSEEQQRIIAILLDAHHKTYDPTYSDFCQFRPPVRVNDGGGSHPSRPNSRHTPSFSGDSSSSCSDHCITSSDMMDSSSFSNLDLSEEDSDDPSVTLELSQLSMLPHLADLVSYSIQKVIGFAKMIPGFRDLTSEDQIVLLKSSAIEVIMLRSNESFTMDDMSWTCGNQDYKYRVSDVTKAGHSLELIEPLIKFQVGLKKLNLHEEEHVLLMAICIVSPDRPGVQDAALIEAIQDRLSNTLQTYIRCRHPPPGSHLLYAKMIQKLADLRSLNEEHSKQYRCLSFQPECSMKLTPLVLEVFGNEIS

Vitamin D3 receptor [5] = molecular target: T1, Vitamin D3 receptor; experiment: Activation of VDR in mouse ASZ cells assessed as up-regulation of Cyp24A1 mRNA at 2.5 uM after 24 hrs by quantitative PCR analysis relative to control; format: ADME, cell-based

Row | Compound | response, % of control [1] | inhibition [2] | pIC50 [2] | Activity (Vitamin D3 receptor [3]) | K [4] | Activity (Vitamin D3 receptor [5])
1 | CC(C)CCC[C@@H](C)[C@H]1CC[C@H]2[C@@H](Nc3ccccc3O)CCC[C@]12C | 2% | Dose-dependent effect | 5.92 | 4.4% | > 100 µM | 
2 | CC(C)CCC[C@@H](C)[C@H]1CC[C@H]2/C(=C/C(=O)Nc3cccc(O)c3)CCC[C@]12C | 12.1% | Dose-dependent effect | 6.00 | 4.5% | > 100 µM | 
3 | CC(C)CCC[C@@H](C)[C@H]1CC[C@@H]2[C@@H](O)CCC[C@]12C | 48.7% |  |  |  |  | 
4 | CC(C)CCC[C@@H](C)[C@H]1CC[C@H]2[C@H](CO)CCC[C@]12C | 55.1% |  |  |  |  | 
5 | CC(C)CCC[C@@H](C)[C@H]1CC[C@H]2[C@@H](OC(=O)CCc3ccc(O)cc3)CCC[C@]12C | 20.1% |  |  |  |  | 
6 | CC(C)CCC[C@@H](C)[C@H]1CC[C@H]2/C(=C/CO)CCC[C@]12C | 15.1% |  |  |  |  | 
7 | CC(C)CCC[C@@H](C)[C@H]1CC[C@H]2[C@@H](OC(=O)/C=C/c3ccc(O)cc3)CCC[C@]12C | 62.1% |  |  |  |  | 
8 | CC(C)CCC[C@@H](C)[C@H]1CC[C@H]2/C(=C/C(=O)Nc3ccccc3)CCC[C@]12C | 41.7% |  |  |  |  | 
9 | CC(C)CCC[C@@H](C)[C@H]1CC[C@H]2[C@@H](OC(=O)CCc3ccccc3O)CCC[C@]12C | 47.4% |  |  |  |  | 
10 | CC(C)CCC[C@@H](C)[C@H]1CC=C2C(=O)CCC[C@@]21C | 63.4% |  |  |  |  | 
11 | CC(C)CCC[C@@H](C)[C@H]1CC=C2[C@H](O)CCC[C@@]21C | 90.1% |  |  |  |  | 
12 | CC(C)CCC[C@@H](C)[C@H]1CC[C@H]2[C@H](c3cccc(O)c3)CCC[C@]12C | 47.9% |  |  |  |  | 
13 | CC(C)CCC[C@@H](C)[C@H]1CC[C@H]2[C@@H](OC(=O)CCc3cccc(O)c3)CCC[C@]12C | 15.3% | Dose-dependent effect | 5.59 | 7.6% | > 100 µM | 
14 | CC(C)CCC[C@@H](C)[C@H]1CC[C@H]2/C(=C/C(=O)Nc3ccc(O)cc3)CCC[C@]12C | 1.8% | Dose-dependent effect | 5.92 | 4.4% | > 100 µM | 
15 | CC(C)CCC[C@@H](C)[C@H]1CC[C@H]2/C(=C/C(=O)Nc3ccccc3O)CCC[C@]12C | 1.1% | Dose-dependent effect | 5.82 | 14% | > 100 µM | 
16 | CC(C)CCC[C@@H](C)[C@H]1CC[C@H]2[C@@H](OC(=O)/C=C/c3cccc(O)c3)CCC[C@]12C | 57.2% |  |  |  |  | 
17 | CC(C)CCC[C@@H](C)[C@H]1CC[C@@H]2[C@]1(C)CCC[C@@]2(O)c1cccc(O)c1 | 39.5% |  |  |  |  | 

Row | Compound | response, % of control [1] | inhibition [2] | pIC50 [2] | Activity (Vitamin D3 receptor [3]) | K [4] | Activity (Vitamin D3 receptor [5])
18 | CC(C)CCC[C@@H](C)[C@H]1CC[C@H]2C(c3cccc(O)c3)=CCC[C@]12C | 37.2% |  |  |  |  | 
19 | CC(C)CCC[C@@H](C)[C@H]1CC[C@H]2[C@H](Nc3ccc(O)cc3)CCC[C@]12C | 1.3% | Dose-dependent effect | 6.49 | 3% | > 100 µM | 
20 | CC(C)CCC[C@@H](C)[C@H]1CC[C@H]2[C@H](CCO)CCC[C@]12C | 2.8% | Dose-dependent effect | 5.62 | 1.3% | > 100 µM | 
21 | CC(C)CCC[C@@H](C)[C@H]1CC[C@H]2[C@H](O)CCC[C@]12C | 74% |  |  |  |  | 
22 | CC(C)CCC[C@@H](C)[C@H]1CC[C@H]2[C@@H](Nc3ccc(O)cc3)CCC[C@]12C | 0.7% | Dose-dependent effect | 6.40 | 2.7% | > 100 µM | 
23 | CCOC(=O)/C=C1\CCC[C@]2(C)[C@@H]([C@H](C)CCCC(C)C)CC[C@@H]12 | 107% |  |  |  |  | 
24 | CC(C)CCC[C@@H](C)[C@H]1CC[C@H]2[C@@H](OC(=O)/C=C/c3ccccc3O)CCC[C@]12C | 94.2% |  |  |  |  | 
25 | CC(C)CCC[C@@H](C)[C@H]1CC[C@H]2[C@@H](NC(=O)c3cccc(O)c3)CCC[C@]12C | 2.5% | Dose-dependent effect | 6.01 | 1.8% | > 100 µM | 
26 | CC(C)CCC[C@@H](C)[C@H]1CC[C@H]2[C@@H](OC(=O)c3cccc(O)c3)CCC[C@]12C | 1.9% | Dose-dependent effect | 6.13 | 1.9% | > 100 µM | 
27 | CC(C)CCC[C@@H](C)[C@H]1CC[C@H]2[C@@H](Nc3cccc(O)c3)CCC[C@]12C | 11.6% | Dose-dependent effect | 6.00 | 1.8% | > 100 µM | 
28 | CC(C)CCC[C@@H](C)[C@H]1CC[C@H]2C(=O)CCC[C@]12C | 66.1% |  |  |  |  | 
29 | CC(C)CCC[C@@H](C)[C@H]1CC[C@H]2/C(=N/O)CCC[C@]12C | 86.1% |  |  |  |  | 
30 | CC(C)CCC[C@@H](C)[C@H]1CC[C@H]2[C@H](OC(=O)c3cccc(O)c3)CCC[C@]12C | 30.6% | Dose-dependent effect | 5.41 | 1.6% | > 100 µM | 
31 | C=C1CC[C@H](O)C/C1=C/C=C1\CCC[C@]2(C)[C@@H]([C@H](C)CCCC(C)C)CC[C@@H]12 [CHOLECALCIFEROL] | 35.7% | Dose-dependent effect | 5.39 |  | > 100 µM | 764%
32 | CC(C)CCC[C@@H](C)[C@H]1CC[C@H]2[C@@H](OC(=O)Cc3cccc(O)c3)CCC[C@]12C | 1.8% | Dose-dependent effect | 6.10 | 3.5% | > 100 µM | 
33 | CC(C)CCC[C@@H](C)[C@H]1CC[C@H]2[C@@H](O)CCC[C@]12C | 46.4% |  |  |  |  | 
34 | CC(C)CCC[C@@H](C)[C@H]1CC[C@H]2[C@H](C(=O)c3cccc(O)c3)CCC[C@]12C | 11% | Dose-dependent effect | 5.74 | 7.8% | > 100 µM | 
